Experimental findings from patent US10858356B2, “Pyrazolopyridine derivative having GLP-1 receptor agonist effect” (Chugai Seiyaku Kabushiki Kaisha, priority 2016, dated 2020) are described below.

In this assay the target is human GLP1R (Homo sapiens (Human), UniProt P43220). Kind of assay: In vitro cAMP signal activation in human GLP1R stably-expressing cell line (hGLP1R-HEK293). In kind it is cell-based. To be noted: cAMP concentration in hGLP1R-HEK293; 100% = 1 nM human GLP-1 (7-37). As for the experimental part: <Test Example 1> Measurement of In Vitro cAMP Signal Activation of a Compound in Human GLP1R
A human GLP1R stably-expressing cell line (hGLP1R-HEK293) was used in the experiment. The cells were cultured in a Dulbecco's modified Eagle's medium (DMEM) containing 10% fetal bovine serum (Sigma-Aldrich), 100 units/mL penicillin G and 100 μg/mL streptomycin sulfate (Gibco), and 500 μg/mL Geneticin (Gibco), under a moist atmosphere containing 5% CO2, at 37° C.
hGLP1R-HEK293 was seeded in 96 well plates at 2.0×10^4 cells per well and cultured over night. The medium for culturing the cells was changed to 50 μL of Medium A (DMEM, 20 mM HEPES, 0.05% BSA, 0.5 mM 3-isobutyl-1-methylxanthine) the next day, and the cells were incubated at 37° C. for 30 min. Then, 50 μL of Medium B (DMEM, 20 mM HEPES, 0.05% BSA, 0.5 mM 3-isobutyl-1-methylxanthine) containing GLP-1 or the compound was added, and the cells were incubated at 37° C. for an additional 30 min. Then, 100 μL of Assay lysis buffer (Applied Bioscience) was added, and the cells were incubated at 37° C. for 30 min. The cAMP concentration was quantified using cAMP HiRange kit (Cisbio Bioassays).
By setting the cAMP concentration when the human GLP-1 (7-37) was put into action at a concentration of 1 nM to 100%, the cAMP concentration of each well was converted to a reaction rate (%).

pEC50: −log10 of the molar value.

Sequence of human GLP1R (P43220 24-463): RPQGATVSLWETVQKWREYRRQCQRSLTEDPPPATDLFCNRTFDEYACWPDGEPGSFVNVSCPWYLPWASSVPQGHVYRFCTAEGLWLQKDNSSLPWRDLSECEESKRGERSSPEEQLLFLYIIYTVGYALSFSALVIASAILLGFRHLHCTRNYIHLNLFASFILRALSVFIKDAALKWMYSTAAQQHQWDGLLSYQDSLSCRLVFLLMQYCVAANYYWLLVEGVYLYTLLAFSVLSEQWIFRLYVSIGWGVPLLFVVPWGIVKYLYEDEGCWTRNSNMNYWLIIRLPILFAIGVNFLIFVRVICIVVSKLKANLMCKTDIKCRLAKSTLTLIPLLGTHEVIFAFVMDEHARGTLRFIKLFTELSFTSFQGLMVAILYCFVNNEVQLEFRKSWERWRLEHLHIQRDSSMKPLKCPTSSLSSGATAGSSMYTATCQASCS

In turn, `COCCn1ncc2cc(-n3ccn(-c4c5c(nn4-c4cc(C)c(F)c(C)c4)CCN(C(=O)c4cc6cc(C7CCOC(C)(C)C7)ccc6n4[C@@]4(c6noc(=O)[nH]6)C[C@@H]4C)C5)c3=O)ccc21` (stereo partly drawn) [compound 76, 3-[(1S,2S)-1-[5-(2,2-dimethyloxan-4-yl)-2-[2-(4-fluoro-3,5-dimethylphenyl)-3-[3-[1-(2-methoxyethyl)indazol-5-yl]-2-oxoimidazol-1-yl]-6,7-dihydro-4H-pyrazolo[4,3-c]pyridine-5-carbonyl]indol-1-yl]-2-methylcyclopropyl]-4H-1,2,4-oxadiazol-5-one] showed a pEC50 of 8.62.

Compound `Cc1cc(-n2nc3c(c2-n2ccn(-c4ccc5c(cnn5[C@H]5CCOC5)c4)c2=O)[C@H](C)N(C(=O)c2cc4cc(C5CCOCC5)ccc4n2[C@@]2(c4noc(=O)[nH]4)C[C@@H]2C)CC3)cc(C)c1F` [Example 22, 3-[(1S,2S)-1-[2-[(4S)-2-(4-fluoro-3,5-dimethylphenyl)-4-methyl-3-[2-oxo-3-[1-[(3S)-oxolan-3-yl]indazol-5-yl]imidazol-1-yl]-6,7-dihydro-4H-pyrazolo[4,3-c]pyridine-5-carbonyl]-5-(oxan-4-yl)indol-1-yl]-2-methylcyclopropyl]-4H-1,2,4-oxadiazol-5-one] had a negative-log EC50 (pEC50) of 8.64.

Turning to `Cc1cc(-n2nc3c(c2-n2ccn(-c4ccc5c(cnn5C)c4F)c2=O)[C@H](C)N(C(=O)c2cc4cc([C@H]5CCOC(C)(C)C5)ccc4n2[C@@]2(c4noc(=O)[nH]4)C[C@@H]2C)CC3)ccc1F` [compound 69, 3-[(1S,2S)-1-[5-[(4S)-2,2-dimethyloxan-4-yl]-2-[(4S)-3-[3-(4-fluoro-1-methylindazol-5-yl)-2-oxoimidazol-1-yl]-2-(4-fluoro-3-methylphenyl)-4-methyl-6,7-dihydro-4H-pyrazolo[4,3-c]pyridine-5-carbonyl]indol-1-yl]-2-methylcyclopropyl]-4H-1,2,4-oxadiazol-5-one], the negative logarithm of the EC50 (pEC50) was 8.55.

Regarding `CCc1nccc(-c2ccc3c(c2)cc(C(=O)N2CCc4nn(-c5cc(C)c(F)c(C)c5)c(-n5ccn(-c6ccc7c(cnn7C)c6)c5=O)c4[C@@H]2C)n3[C@@]2(c3noc(=O)[nH]3)C[C@@H]2C)c1C` [compound 73, 3-[(1S,2S)-1-[5-(2-ethyl-3-methylpyridin-4-yl)-2-[(4S)-2-(4-fluoro-3,5-dimethylphenyl)-4-methyl-3-[3-(1-methylindazol-5-yl)-2-oxoimidazol-1-yl]-6,7-dihydro-4H-pyrazolo[4,3-c]pyridine-5-carbonyl]indol-1-yl]-2-methylcyclopropyl]-4H-1,2,4-oxadiazol-5-one], the negative logarithm of the EC50 (pEC50) is 8.60.

For `COCCn1ncc2c(F)c(-n3ccn(-c4c5c(nn4-c4cc(C)c(Cl)c(C)c4)CCN(C(=O)c4cc6cc(C7CCOCC7)ccc6n4[C@@]4(c6noc(=O)[nH]6)C[C@@H]4C)[C@H]5C)c3=O)ccc21` [Example 45, 3-[(1S,2S)-1-[2-[(4S)-2-(4-chloro-3,5-dimethylphenyl)-3-[3-[4-fluoro-1-(2-methoxyethyl)indazol-5-yl]-2-oxoimidazol-1-yl]-4-methyl-6,7-dihydro-4H-pyrazolo[4,3-c]pyridine-5-carbonyl]-5-(oxan-4-yl)indol-1-yl]-2-methylcyclopropyl]-4H-1,2,4-oxadiazol-5-one], the pEC50 is 8.80.

Take `Cc1cc(-n2nc3c(c2-n2ccn(-c4ccc5c(C)nsc5c4)c2=O)[C@H](C)N(C(=O)c2cc4cc(C5CCOCC5)ccc4n2[C@@]2(c4noc(=O)[nH]4)C[C@@H]2C)CC3)cc(C)c1F` [Example 18, 3-[(1S,2S)-1-[2-[(4S)-2-(4-fluoro-3,5-dimethylphenyl)-4-methyl-3-[3-(3-methyl-1,2-benzothiazol-6-yl)-2-oxoimidazol-1-yl]-6,7-dihydro-4H-pyrazolo[4,3-c]pyridine-5-carbonyl]-5-(oxan-4-yl)indol-1-yl]-2-methylcyclopropyl]-4H-1,2,4-oxadiazol-5-one]: the negative logarithm of the EC50 (pEC50) is 8.89.

`COCCCN(C(C)=O)c1ccc(-n2ccn(-c3c4c(nn3-c3cc(C)c(F)c(C)c3)CCN(C(=O)c3cc5cc(C6CCOCC6)ccc5n3[C@@]3(c5noc(=O)[nH]5)C[C@@H]3C)C4)c2=O)cc1OC` [Example 9, N-[4-[3-[2-(4-fluoro-3,5-dimethylphenyl)-5-[1-[(1S,2S)-2-methyl-1-(5-oxo-4H-1,2,4-oxadiazol-3-yl)cyclopropyl]-5-(oxan-4-yl)indole-2-carbonyl]-6,7-dihydro-4H-pyrazolo[4,3-c]pyridin-3-yl]-2-oxoimidazol-1-yl]-2-methoxyphenyl]-N-(3-methoxypropyl)acetamide]: the pEC50 was 8.74.

The compound `Cc1cc(-n2nc3c(c2-n2ccn(-c4ccc5c(cnn5C)c4)c2=O)[C@H](C)N(C(=O)c2cc4cc([C@H]5CCOC(C)(C)C5)ccc4n2[C@@]2(c4noc(=O)[nH]4)C[C@@H]2C)CC3)ccc1F` [Example 50, 3-[(1S,2S)-1-[5-[(4S)-2,2-dimethyloxan-4-yl]-2-[(4S)-2-(4-fluoro-3-methylphenyl)-4-methyl-3-[3-(1-methylindazol-5-yl)-2-oxoimidazol-1-yl]-6,7-dihydro-4H-pyrazolo[4,3-c]pyridine-5-carbonyl]indol-1-yl]-2-methylcyclopropyl]-4H-1,2,4-oxadiazol-5-one] showed a pEC50 of 8.54.

`Cc1cc(-n2nc3c(c2-n2ccn(-c4ccc5c(c4)CCOC5(C)C)c2=O)[C@H](C)N(C(=O)c2cc4cc(C5CCOCC5)ccc4n2[C@@]2(c4noc(=O)[nH]4)C[C@@H]2C)CC3)cc(C)c1F` [Example 24, 3-[(1S,2S)-1-[2-[(4S)-3-[3-(1,1-dimethyl-3,4-dihydroisochromen-6-yl)-2-oxoimidazol-1-yl]-2-(4-fluoro-3,5-dimethylphenyl)-4-methyl-6,7-dihydro-4H-pyrazolo[4,3-c]pyridine-5-carbonyl]-5-(oxan-4-yl)indol-1-yl]-2-methylcyclopropyl]-4H-1,2,4-oxadiazol-5-one] gave a pEC50 of 8.60.

Compound `COc1nccc(-c2ccc3c(c2)cc(C(=O)N2CCc4nn(-c5cc(C)c(F)c(C)c5)c(-n5ccn(-c6ccc7c(cnn7CC(C)(C)O)c6)c5=O)c4[C@@H]2C)n3[C@@]2(c3noc(=O)[nH]3)C[C@@H]2C)c1C` [Example 13, 3-[(1S,2S)-1-[2-[(4S)-2-(4-fluoro-3,5-dimethylphenyl)-3-[3-[1-(2-hydroxy-2-methylpropyl)indazol-5-yl]-2-oxoimidazol-1-yl]-4-methyl-6,7-dihydro-4H-pyrazolo[4,3-c]pyridine-5-carbonyl]-5-(2-methoxy-3-methylpyridin-4-yl)indol-1-yl]-2-methylcyclopropyl]-4H-1,2,4-oxadiazol-5-one] had a pEC50 of 8.43.

In the case of `Cc1cc(-n2nc3c(c2-n2ccn(-c4ccc5c(cnn5CC(C)(C)O)c4F)c2=O)[C@H](C)N(C(=O)c2cc4cc(C5CCOCC5)ccc4n2[C@@]2(c4noc(=O)[nH]4)C[C@@H]2C)CC3)cc(C)c1F` [Example 30, 3-[(1S,2S)-1-[2-[(4S)-2-(4-fluoro-3,5-dimethylphenyl)-3-[3-[4-fluoro-1-(2-hydroxy-2-methylpropyl)indazol-5-yl]-2-oxoimidazol-1-yl]-4-methyl-6,7-dihydro-4H-pyrazolo[4,3-c]pyridine-5-carbonyl]-5-(oxan-4-yl)indol-1-yl]-2-methylcyclopropyl]-4H-1,2,4-oxadiazol-5-one], the pEC50 is 8.85.

In turn, `COCCn1ncc2cc(-n3ccn(-c4c5c(nn4-c4cc(C)c(F)c(C)c4)CCN(C(=O)c4cc6cc(C7CCOCC7)ccc6n4[C@@]4(c6noc(=O)[nH]6)C[C@@H]4C)[C@H]5C)c3=O)ccc21` [Example 16, 3-[(1S,2S)-1-[2-[(4S)-2-(4-fluoro-3,5-dimethylphenyl)-3-[3-[1-(2-methoxyethyl)indazol-5-yl]-2-oxoimidazol-1-yl]-4-methyl-6,7-dihydro-4H-pyrazolo[4,3-c]pyridine-5-carbonyl]-5-(oxan-4-yl)indol-1-yl]-2-methylcyclopropyl]-4H-1,2,4-oxadiazol-5-one] gave a pEC50 of 9.29.

Compound `Cc1cc(-n2nc3c(c2-n2ccn(-c4ccc5c(cnn5C)c4)c2=O)[C@H](C)N(C(=O)c2cc4cc(-c5ccnc(N(C)C)c5C)ccc4n2[C@@]2(c4noc(=O)[nH]4)C[C@@H]2C)CC3)cc(C)c1F` [Example 15, 3-[(1S,2S)-1-[5-[2-(dimethylamino)-3-methylpyridin-4-yl]-2-[(4S)-2-(4-fluoro-3,5-dimethylphenyl)-4-methyl-3-[3-(1-methylindazol-5-yl)-2-oxoimidazol-1-yl]-6,7-dihydro-4H-pyrazolo[4,3-c]pyridine-5-carbonyl]indol-1-yl]-2-methylcyclopropyl]-4H-1,2,4-oxadiazol-5-one] gave a negative-log EC50 (pEC50) of 8.66.

Compound `CCc1nccc(-c2ccc3c(c2)cc(C(=O)N2CCc4nn(-c5cc(C)c(F)c(C)c5)c(-n5ccn(-c6ccc7c(C)nn(C)c7c6)c5=O)c4C2)n3[C@@]2(c3noc(=O)[nH]3)C[C@@H]2C)c1C` [Example 5, 3-[(1S,2S)-1-[2-[3-[3-(1,3-dimethylindazol-6-yl)-2-oxoimidazol-1-yl]-2-(4-fluoro-3,5-dimethylphenyl)-6,7-dihydro-4H-pyrazolo[4,3-c]pyridine-5-carbonyl]-5-(2-ethyl-3-methylpyridin-4-yl)indol-1-yl]-2-methylcyclopropyl]-4H-1,2,4-oxadiazol-5-one] showed a pEC50 of 8.21.
